The target in the test is T1, EHEP (Eisenia hydrolysis enhancing protein, 25 kDa) (Aplysia kurodai, UniProt A0A1B4XTR1).
T1 construct: native protein purified from digestive fluid; signal peptide 1-16 predicted to be removed; 25 kDa monomer
T1 sequence (A0A1B4XTR1 17-229): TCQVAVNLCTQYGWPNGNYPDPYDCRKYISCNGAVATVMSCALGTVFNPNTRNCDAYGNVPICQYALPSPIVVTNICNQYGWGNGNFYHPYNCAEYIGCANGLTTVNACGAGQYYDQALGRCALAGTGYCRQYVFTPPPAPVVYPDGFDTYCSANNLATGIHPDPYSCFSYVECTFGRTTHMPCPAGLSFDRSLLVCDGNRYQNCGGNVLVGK
Put plainly: co-precipitation, SDS-PAGE of precipitate. Particulars: 50 and 100 μg in 0.1 ml; 50 mM acetate pH 5.5, 0.1 M NaCl, 10 mM CaCl2; 25 °C, 90 min. Type of test: binding.

Take `O=C(O)c1cc(O)c(O)c(O)c1` [gallic acid]: the “co-precipitation, SDS-PAGE of precipitate” value is “EHEP was precipitated by phloroglucinol and gallic acid”.
`Oc1cc(O)cc(O)c1` [phloroglucinol, 1,3,5-trihydroxybenzene]: the “co-precipitation, SDS-PAGE of precipitate” value is “EHEP was precipitated by phloroglucinol and gallic acid”.

(Values after publication PMC5271319, “Identification and Characterization of a 25 kDa Protein That Is Indispensable for the Efficient Saccharification of Eisenia bicyclis in the Digestive Fluid of Aplysia kurodai” (PLoS ONE, 2017).)
